# Test results reported in a melting point compilation (Tetko et al.; mined from patent text by program, amines drawn as free bases though some values may be those of a salt).
row,melting point,Structure (SMILES)
1,180 °C,CCOc1ccc2[nH]c(C(=O)O)cc2c1
2,170 °C,Cc1cccc(NC(=O)NCC(=O)N(CC(=O)Nc2cccc3cccnc23)c2ccccc2)c1
3,72 to 75 °C,CCCCC1c2sccc2CCN1CCCOc1ccc([N+](=O)[O-])cc1 (stereo not given)
4,135 to 138 °C,O=C(CCC1CCCC1)Nc1cccc2ncccc12
5,147 to 149 °C,CC1(c2cc(NC(=O)Nc3ccc(OCCN4CCOCC4)c4ccccc34)n(-c3ccccc3)n2)CCCCC1
6,96.5 to 97.5 °C,CCOC(=O)N1CCN(C2=Nc3ccccc3Sc3ccc(Cl)cc32)CC1
7,172 to 173 °C,COc1ccccc1C1(N[C@H](CO)c2ccccc2)C(=O)Nc2ccc(Cl)cc21 (stereo not given in full)
8,215 to 216 °C,NC(=O)c1ccc(C(O)c2c(O)c(=O)ccn2CCO)cc1 (stereo not given)
9,186 to 187 °C,Nc1ccc(C(=O)c2ccccn2)cc1[N+](=O)[O-]
10,120 to 122 °C,O=S(c1ccccc1)C1O[C@H](COCc2ccccc2)[C@@H](OCc2ccccc2)[C@H](OCc2ccccc2)[C@H]1OCc1ccccc1 (stereo not given in full)
11,65 to 70 °C,CCN1CC(=O)N(C)c2cc(Nc3ncc(Cl)c(Nc4ccc(OC)c(CNCCO)c4)n3)c(OC)cc2C1
12,114 °C,CCOC(=O)CSc1nc2cc([N+](=O)[O-])ccc2[nH]1
13,167 to 169 °C,CCCc1nc2c(N)nc3cc(OCc4cccnc4)ccc3c2s1
14,113 to 116 °C,CC(=O)NCC1CN(c2ccc(N3CC4CCCN(C(=O)COC(C)=O)C4C3)c(F)c2)C(=O)O1 (stereo not given)
15,271 to 273 °C,Cc1c(C(=O)O)ccc(=O)n1-c1ccc(Cl)cc1
16,249 to 252 °C,O=C(O)c1cc2c(F)ccc(Br)c2s1
17,72 to 74 °C,CCOC(=O)/C=C/c1cc(OCc2ccccc2)ccc1Br
18,165 to 167 °C,CCc1cc(C(=O)c2ccccc2Cl)c(-n2cnnc2CNS(=O)(=O)c2ccc3ccccc3c2)s1
19,137 to 138 °C,Cc1nnc(-c2ccc3occ(-c4cnn(Cc5cccnc5)c4)c3c2)o1
20,180 °C,CCCCCC(C)N(CCCC)c1ccc(C2=C(C#N)C(=C(C#N)C#N)NC2=O)cc1 (stereo not given)
21,60 °C,CCNC(=O)c1cccc(F)c1N
22,161 °C,CC(C)(O)c1ccc(-c2ccc(C(C)(C)O)cc2)cc1
23,142 to 144 °C,CS(=O)(=O)n1ccc2cc3c(cc21)C(C#N)C3 (stereo not given)
24,133 to 135 °C,CCOC(=O)c1ccc(NCCOc2cccc3c2CCCC3)cc1

row,melting point,Structure (SMILES)
1,242 °C,Nc1ccc(-c2noc(-c3cnn4c(C(F)F)cc(-c5ccc(C(F)(F)F)cc5)nc34)n2)cn1
2,97 to 99 °C,CC(C)[C@@H]1C[C@H](O)[C@H](C2CCCCC2)NC1=O
3,132 °C,COc1ccc(Cn2cc[nH]c2=O)cc1
4,113 to 114 °C,CCc1noc(-c2cn(-c3cccc(OCc4ccccc4)c3)cn2)n1
5,50 °C,C=CCOc1ccc(C(=O)OC2CCC(CCCCCCC(=O)C(=C)C)CC2)cc1 (stereo not given)
6,183 to 184 °C,CCN1C(=Cc2ccc([N+](=O)[O-])cc2C#N)C=Cc2ccccc21
7,62 to 64 °C,Cc1oc(-c2ccccc2)nc1COc1cccc(CN(O)C(=O)N(C)O)c1
8,254 to 256 °C,O=c1oc2c(O)c(O)ccc2c2ccccc12
9,96 to 98 °C,CC(Cl)=CCOc1ccc(C(=O)O)nc1
10,199 °C,COc1cc(C)ccc1S(=O)(=O)NC(=O)C(c1ccc2c(c1)OCO2)c1cn(C)c2cc(C(=O)O)ccc12 (stereo not given)
11,93.5 °C,CCCCCc1ccc(-c2ncc([C@H]3CC[C@H](CCC)CC3)cn2)cc1
12,295 to 299 °C,Cn1cc(C(N)=O)c(=O)c2cc(F)ccc21
13,220 to 222 °C,COc1nc(-c2ccccc2)c2c(n1)N(c1ccccc1)C(=O)NC2
14,154 to 155 °C,COc1ccc(C(=O)Nc2ccc(Cl)c(Cl)c2)cc1Nc1cccc(C(F)(F)F)c1
15,154 °C,O=CC1(c2ccc(Br)cc2)CC=CO1 (stereo not given)
16,175 to 177 °C,CS(=O)(=O)c1ccc(-c2cnn(-c3ccc(F)cc3)c(=O)c2Cc2ccc(F)cc2)cc1
17,210 °C,O=C(O)COc1ccc(-c2c(Br)ccc3sc4ccccc4c23)cc1
18,200 to 202 °C,NC1=CC=C2C=c3c(cnn3-c3ccccc3)=C2C1=O
19,153 °C,CCCc1nc(Br)c(C(C)(O)C(=O)O)n1Cc1ccc(-c2ccccc2S(=O)(=O)NC(=O)NCc2ccccc2)cc1 (stereo not given)
20,119 to 120 °C,O=P1(c2ccc(F)cc2)c2ccccc2CN1c1ccccc1 (stereo not given)
21,248 °C,COc1ccc(C(=O)O)c(Oc2ccc(C(F)(F)F)cc2NC(=O)Nc2cc(C(F)(F)F)cc(C(F)(F)F)c2)c1
22,176 to 177 °C,COc1cc2cc(-c3cccnc3)nc(-c3ccccc3)c2cc1OC
23,77 to 78 °C,CCOP(=O)(Cc1ccc(C(=O)O)s1)OCC
24,68 to 69 °C,CCCCCCCCCCCCCCCCCCOC[C@H](CO)OC(=O)NC

# Continued, compound first:
row,Structure (SMILES),melting point
1,Oc1ccccc1-c1nc(-c2ccc(-c3ccccc3)cc2)nc(-c2ccc3ccccc3c2)n1,227 to 239 °C
2,O=S1(=O)N=C(NC2CC2)Nc2cc(Cl)sc21,272 to 273 °C
3,COc1ccc(C(=O)Nc2ccc(C(=O)NC(C)(C)C)cc2)cc1C12CC3CC(CC(C3)C1)C2,270 to 273 °C
4,CN(C)C=C(C#N)CC#N,49 °C
5,CCCC(=O)n1nc2c(c1NC)c(=O)n(CCC)c(=O)n2Cc1cccc(Cl)c1,152 to 153 °C
6,O=C(O)CC1SCCOC1=O (stereo not given),96 to 98 °C
7,O=C1C(=O)N(CCCCN2CCN(C(c3ccccc3)c3ccccc3)CC2)c2ccccc21,127 to 129 °C
8,CN(C(=O)c1nsc2ccc(-n3c(=O)cc(C(F)(F)F)n(C)c3=O)cc12)S(C)(=O)=O,120 to 122 °C
9,CC(C(=O)O)c1ccc(-n2cccn2)c(Cl)c1 (stereo not given),83 to 85 °C
10,c1ccc(C2CCNC3=NCCCN32)cc1 (stereo not given),177 to 179 °C
11,O=C(NCCSCc1cccc(C(F)(F)F)c1)c1c(Cl)cccc1Cl,54 to 55 °C
12,COc1ccc(Cn2c(=S)[nH]c(=O)c3[nH]c(C(C)C)nc32)cc1OCc1ccccc1,280 to 281 °C
13,CN(C)CCCCCCSc1ncccc1C(=O)c1cccs1,69 to 71 °C
14,NCCN1CCC(Nc2nc3cccnc3n2Cc2ccccn2)CC1,151 °C
15,COc1ccc(-c2cnc(-c3ccc(F)cc3)nc2-c2ccc(OC)cc2)cc1,129 to 130 °C
16,CCCCC1(N(C)C)CCC(c2[nH]c3ccc(C(F)(F)F)cc3c2C)CC1 (stereo not given),141 to 146 °C
17,CCC(Cc1cc(C(C)(C)C)c(O)c(C(C)(C)C)c1)(C(=O)OCC1(C)C(C)(C)C=C(O)CC1(C)C)C(=O)OCC1(C)C(C)(C)C=C(O)CC1(C)C (stereo not given),166 °C
18,CN1CCC(O)(c2cc3ccccc3s2)CC1,161 to 163 °C
19,COc1ccc2c(c1)C(=O)N(c1ccc3c(c1)cc(C)n3C)C2,209 to 213 °C
20,COc1cc2ncc(N[C@H]3CC[C@H](C(=O)OC)CC3)nc2cc1OC,68 to 80 °C
21,Cc1cc(NNC(=O)Nc2ccc(N(CCCl)CCCl)cc2)c2ccccc2n1,235 to 236 °C
22,Fc1ccccc1-c1nc2cccnc2s1,119 to 121 °C
23,Cc1ccccc1N1CCN(CC(O)c2ccc(N3CCCNC3=O)cc2)CC1 (stereo not given),234 to 235 °C
24,CC(C)(C)OC(=O)N[C@@H](Cc1ccc(O)cc1)C(=O)N[C@H](Cc1ccccc1)C(=O)NCC(=O)OCc1ccccc1,169 °C
25,CCOC(=O)c1cccc(NC(=O)c2sc(NC(=N)N)nc2C)c1,149 to 152 °C
26,Cc1nc(-c2ccccc2)nc(-c2cccc([N+](=O)[O-])c2)c1C(=O)OCCO,84 to 86 °C

row,Structure (SMILES),melting point
1,CCSC(=NC(=O)N(C)C)NC(=O)NC,109 to 112 °C
2,COc1cc2ccc3c4cc5c(cc4cnc3c2cc1OC)OCO5,275 to 277 °C
3,COc1ccc(-c2nc(NC3=NCCN3)sc2-c2ccc(OC)cc2)cc1,211 to 214 °C
4,CCCCCCc1sc(C(N)=O)c2c1-c1nn(C)cc1CC2,194 to 195 °C
5,Cc1nc(-n2cnn(CC(=O)Nc3ccc(Cl)cc3)c2=O)sc1C(=O)NCc1cccnc1,255 to 256 °C
6,O=C(Nc1ccc(C(=O)Oc2ccccc2)c(Cl)c1)c1ccccc1,126 to 128 °C
7,CCOC(=O)c1cc2c(=O)n(C(C)C)c3ccccc3n2c1,169 to 170 °C
8,COC(=O)c1nc(Cl)c(Cl)c(Cl)c1I,61 to 62 °C
9,NCc1ccc(F)cc1C(F)(F)C(F)(F)c1ccccc1,52.5 to 54 °C
10,COC(=O)[C@H]1C[C@H](NC(=O)Oc2ccccc2)c2c(Cl)cc(Cl)cc2N1 (relative stereo),159 to 161 °C
11,CC(C)c1c(CCC=O)c2c(c(C(C)C)c1OCc1ccccc1)CC(C)(C)O2,120 to 122 °C
12,CCOC(=O)c1ccc(CN(C(C)=O)C(=O)OC(C)(C)C)cc1,96 to 97 °C
13,N#Cc1cnc2c(oc3ccccc32)c1Nc1ccc(Oc2ccccc2)cc1,175 to 179 °C
14,CCN(c1cccc(Cl)c1)C(C(=O)O)c1c(Cl)cccc1Cl (stereo not given),120 °C
15,CCCCCCCCCCCCCCOc1ccc(CC(=O)O)cc1,86 to 87 °C
16,O=C(c1ccc(O)cc1)c1ccon1,125 to 127 °C
17,CCOC(=O)c1cn2cccc(C(=O)OCC)c2n1,97 °C
18,O=C(O)c1cn(-c2cnsn2)c2c(F)c(F)c(F)cc2c1=O,205 to 207 °C
19,Cc1c(-c2ccc(F)cc2)oc2c(-c3ccc(F)cc3)c(-c3ccc(S(C)(=O)=O)cc3)nn12,257 to 259 °C
20,O=[N+]([O-])c1cc2c(cc1C=Cc1ccccn1)OCO2,167 to 170 °C
21,CC(C)Cn1c(-c2ccccc2)nc2cnc3ccccc3c21,139 to 140 °C
22,O=c1[nH]c2c(C(F)(F)F)cccc2c(=O)n1CCCN1CC=C(c2ccc(Cl)cc2)CC1,199 to 201 °C
23,O=C1CC(C(=O)O)NN1 (stereo not given),188 to 190 °C
24,CCON=C(C(C)=NOCc1ccccc1C(=NOC)C(=O)NC)c1ccc(Oc2ccc(Cl)cc2)cc1,126 to 129 °C
25,Cc1cc(C)cc(S(=O)(=O)n2c(CCC(=O)O)cc3cc(Cl)ccc32)c1,189 to 193 °C
26,O=C(CCCl)N1CCc2ccc([N+](=O)[O-])cc21,127 to 128 °C
